Tests used:
Type in all cases: cell-based
[1] = test system: human myelogenous leukemia K562; test: MTS cytotoxicity assay, K562; conditions: 48 h incubation
Protocol: (§1) In order to obtain information about the growth-inhibiting action of hydrazones reported in the present invention on tumor cells, growth inhibition was assessed for the following human tumor cell lines: human myelogenous leukemia K562, human cervical adenocarcinoma HeLa, human colon adenocarcinoma Caco-2, human colon carcinoma HT-29, human colon carcinoma HCT-15, and human breast carcinoma MCF-7.
(§2) The K562, HeLa, HT-29, HCT-15, Caco-2, and MCF-7 cell lines were obtained from the American type Culture Collection (ATCC, Manassas, Va.). K562 cells were maintained in RPMI 1640 medium (Gibco/Life Technologies, Gaithersburg, Md.) containing 10% heat-inactivated fetal bovine serum (FBS) (Atlanta Biologicals, Atlanta, Ga.) and 10000 U/L penicillin and 50 mg/L streptomycin. HeLa, HT-29, HCT-15, Caco-2 and MCF-7 cells were maintained in MEM with Earl's balanced salts, 10% FBS, penicillin, and streptomycin as above. Logarithmically growing HT-29, Caco-2, and MCF-7 cells were incubated with 0.05% trypsin containing 1 mM EDTA at 37° C. for about 5 min until cells were nonadherent and formed a single cell suspension. Trypsin activity was neutralized by adding 20-fold excess of the serum-containing medium. Cells were cultured at 37° C. in an atmosphere of air and 5% CO2.
(§3) Cytotoxicity assays were conducted by tetrazolium reduction of 3-(4,5-dimethylthiazol-2-yl)-5-(3-carboxymethoxyphenyl)-2-(4-sulfophenyl)-2H-tetrazolium (MTS) with N-methylphenazonium methyl sulfate (PMS) (CellTiter Assay, Promega, Madison, Wis.). Logarithmically growing cells were plated in 0.1 mL aliquots in 96-well microtiter plates. Cells were plated at an initial density of about 5000 cells/mL and allowed to acclimatize for 24 h. Cell suspensions were treated with various dilutions of compounds in triplicate, mixed well, and allowed to incubate for 48 h at 37° C. in an atmosphere of air and 5% CO2. To the cell suspension was added 20 μL of tetrazolium reagent, the mixture was incubated for 2 h at 37° C. in an atmosphere of air and 5% CO2, and absorbance at 490 nm was read by microplate reader. Control plates with serial dilutions of cell types were counted as a control for the assay. In all cases, controls indicated a linear response versus cell number, R^2≧0.99.

[2] = test system: human cervical adenocarcinoma HeLa; test: MTS cytotoxicity assay, HeLa; conditions: 48 h incubation
Protocol: as §1, §2, §3

[3] = test system: human colon carcinoma HT-29; test: MTS cytotoxicity assay, HT-29; conditions: 48 h incubation
Protocol: as §1, §2, §3

[4] = test system: human colon carcinoma HCT-15; test: MTS cytotoxicity assay, HCT-15; conditions: 48 h incubation
Protocol: as §1, §2, §3

[5] = test system: human colon adenocarcinoma Caco-2; test: MTS cytotoxicity assay, Caco-2; conditions: 48 h incubation
Protocol: as §1, §2, §3

[6] = test system: human breast carcinoma MCF-7; test: MTS cytotoxicity assay, MCF-7; conditions: 48 h incubation
Protocol: as §1, §2, §3

[7] = test system: leukemia cell lines; test: NCI 60 human tumor cell line screen, leukemia; conditions: arithmetic mean of two to nine cancer cell lines, read-out: Inhibitory concentration GI50, leukemia
Text: (§4) Selected compounds were submitted for testing in the organ-specific panel of human tumor cell lines at the National Cancer Institute, Bethesda, Md. This screen utilized 60 human tumor cell lines, representing leukemia, melanoma, and cancers of the lung, colon, brain, ovary, kidney, prostate, and breast (Boyd, M. R., “Status of the NCl preclinical antitumor drug discovery screen”. In Principles and practice of oncology updates; De Vita, V. T., Jr. Hellman, S., Rosenberg, S. A., Eds.; Lippincott: Philadelphia, Pa., 1989; Vol. 3, pp 1-12).
(§5) The MG MID value is the average of the GI50 values for all the cell lines tested for drug concentrations in the range of 10^−4-10^−8 M (See website domain: dtp.nci.nih.gov/dtp).

[8] = test system: nonsmall cell lung cancer cell lines; test: NCI 60 human tumor cell line screen, NSCL; conditions: arithmetic mean of two to nine cancer cell lines, read-out: Inhibitory concentration GI50, NSCL
Text: as §4, §5

[9] = test system: colon cancer cell lines; test: NCI 60 human tumor cell line screen, colon; conditions: arithmetic mean of two to nine cancer cell lines, read-out: Inhibitory concentration GI50, colon
Text: as §4, §5

[10] = test system: CNS cancer cell lines; test: NCI 60 human tumor cell line screen, CNS; conditions: arithmetic mean of two to nine cancer cell lines, read-out: Inhibitory concentration GI50, CNS
Text: as §4, §5

[11] = test system: melanoma cell lines; test: NCI 60 human tumor cell line screen, melanoma; conditions: arithmetic mean of two to nine cancer cell lines, read-out: Inhibitory concentration GI50, melanoma
Text: as §4, §5

[12] = test system: ovarian cancer cell lines; test: NCI 60 human tumor cell line screen, ovarian; conditions: arithmetic mean of two to nine cancer cell lines, read-out: Inhibitory concentration GI50, ovarian
Text: as §4, §5

[13] = test system: renal cancer cell lines; test: NCI 60 human tumor cell line screen, renal; conditions: arithmetic mean of two to nine cancer cell lines, read-out: Inhibitory concentration GI50, renal
Text: as §4, §5

[14] = test system: prostate cancer cell lines; test: NCI 60 human tumor cell line screen, prostate; conditions: arithmetic mean of two to nine cancer cell lines, read-out: Inhibitory concentration GI50, prostrate
Text: as §4, §5

[15] = test system: breast cancer cell lines; test: NCI 60 human tumor cell line screen, breast; conditions: arithmetic mean of two to nine cancer cell lines, read-out: Inhibitory concentration GI50, breast
Text: as §4, §5

[16] = test system: 60 human tumor cell lines; test: NCI 60 human tumor cell line screen, all cell lines
Text: as §4, §5

[17] = test system: HL60; test: MTS cytotoxicity on MDR tumor cells, HL60; conditions: Vincristine (VCR) sensitive, 72 hr incubation
[18] = test system: HL60-VCR; test: MTS cytotoxicity on MDR tumor cells, HL60-VCR; conditions: Vincristine (VCR) resistant, 72 hr incubation
[19] = test system: human colorectal carcinoma HT29; test: Western blot of signal transduction pathways in HT29 cells; conditions: HT29, IC50 dose
Protocol: The newly synthesized hydrazones RPC038, RPC042, and RPC046 had shown anti-tumor activity against 60 human cancer cell lines panel of the National Cancer Institute and on multi-drug resistant cell lines. The present studies were conducted to evaluate their action on signal transduction pathways in human colorectal carcinoma HT29. All the three compounds were examined at their IC50 doses.
Human colorectal carcinoma HT29 cells were obtained from the National Cancer Institute, Bethesda, Md., USA, and maintained in 5% CO2 at 37° C. in minimum essential media (Life Technologies, Inc., Grand Island, N.Y., USA) supplemented with 1% penicillin, streptomycin (Invitrogen, Carlsbad, Calif., USA), and 10% fetal bovine serum for optimal growth. HT29 cells (1×10^6) were plated in […], and 24 h later, fresh media was added and treated with the RPC038, RPC042 and RPC046 for indicated time points (2, 4, 8, 16 and 24 h). The cells were then washed with cold phosphate buffered saline (PBS) and taken in 1 ml PBS on ice and centrifuged at 4° C. The pellet was resuspended in appropriate volumes of radio immunoprecipitation assay buffer with protease inhibitor, kept on ice for 45 min and subsequently centrifuged at 4° C. An aliquot of supernatant (protein extract) was used to estimate the protein concentration. An aliquot of protein extract (40 μg) was subjected to Western blot analysis on a 12% polyacrylamide gel and transferred to nitrocellulose membrane. Blots were blocked, incubated with primary anti-pMEK, pERK, pJNK, pcjun, ERK, JNK, Cjun, Caspase-8, Caspase-6, PARP cleavage, or GAPDH antibodies (Cell Signaling Technology, Danvers, Mass.) and then conjugated with a secondary anti-mouse or an anti-rabbit horseradish […] antibody, and detected by ChemiDoc™ XRS+ System with Image Lab™ Software.

[20] = test system: human colorectal carcinoma HT29; test: Annexin-V FACS analysis of apoptosis; conditions: FIGS. 3 and 4, treated versus control cells
Protocol: This activation was through ERK signaling and not through JNK signaling, resulting in PARP cleavage after 16 h. […] Activation of NFkB (p50) was also observed following treatment with these compounds.

[21] = test system: human colorectal carcinoma HT29; test: Western blot of signal transduction pathways in HT29 cells; conditions: HT29, IC50 dose; remark: listed apart in the source

SMILES: OC[C@H]1OC(n2cnc3c(NN=Cc4ccccn4)ncnc32)[C@H](O)[C@@H]1O (some centres unmarked) [I-9]
- GI50 [1]: 1.5 µM
- GI50 [2]: 1.2 µM
- GI50 [3]: 2 µM
- GI50 [4]: < 1 µM
- GI50 [5]: 0.4 µM
- GI50 [6]: 2 µM
- GI50 [7]: 0.116 µM
- GI50 [8]: 0.269 µM
- GI50 [9]: 0.251 µM
- GI50 [10]: 0.271 µM
- GI50 [11]: 0.347 µM
- GI50 [12]: 0.196 µM
- GI50 [13]: 0.219 µM
- GI50 [14]: 0.137 µM
- GI50 [15]: 0.25 µM
- cells found to be the most sensitive ([16]; NCI screen, by cancer type): leukemia, prostate, ovarian, and renal cancer cell lines
- mean GI50 (MG-MID) ([16]; average of the GI50 values for all the cell lines tested, drug concentrations 10^−4-10^−8 M, read-out: MG-MID (mean graph midpoint)): 0.228 µM
- GI50 [17]: 1 µM
- GI50 [18]: 1.5 µM
- phosphorylation of ERK (time) ([19]; Western blot pERK): 4 h
- phosphorylation of JNK ([19]; Western blot pJNK (results not shown)): without phosphorylation of JNK
- MEK activation (time) ([19]; Western blot pMEK): 2 h
- activation of cjun (time) ([19]; Western blot pcjun): 6 h
- Caspase activation ([19]; initial studies): Caspase-3 activation through Caspase-6 and not through Caspase-8
- Apoptosis (Annexin-V, FACS analysis) [20]: Apoptosis was also established
- Activation of NFkB (p50) [21]: observed

From US9133230B2, “Hydrazone derivatives having potent antitumor activity toward multi-drug resistant tumor cells” (THE UNITED STATES OF AMERICA AS REPRESENTED BY THE …, priority 2011, dated 2015)
